Results as given in ChEMBL document CHEMBL1123894, “Structure-activity relationships of cyclic opioid peptide analogues containing a phenylalanine residue in the 3-position” (J Med Chem, 1987).
Bridge positions count the residues as written; N and C are the ends. Square brackets hold non-standard residues; d marks the D form. Peptide text beside a SMILES is read from it. Orn = NCCC[C@H](N)C(=O)O

What was measured:
[1] = target: Delta-type opioid receptor (Rattus norvegicus, UniProt P33533); experiment: Inhibition of [3H]DSLET binding to rat brain membrane Opioid receptor delta 1
[2] = target: T1, Mu-type opioid receptor (Rattus norvegicus, UniProt P33535); experiment: Binding affinity towards Opioid receptor mu 1 in rat brain membrane using [3H]DAGO as radioligand; format: cell membranes
[3] = target: T2, Mu-type opioid receptor (Cavia porcellus, UniProt P97266); experiment: Inhibitory activity towards Opioid receptor mu 1 using guinea pig ileum (GPI) assay was determined for the compound; format: tissue-based
[4] = target: T2, Mu-type opioid receptor; experiment: Inhibitory activity towards electrically induced contractions in guinea pig ileum expressing Opioid receptor mu 1; format: tissue-based
[5] = target: Delta-type opioid receptor (Mus musculus, UniProt P32300); experiment: Inhibitory activity towards electrically induced contractions in mouse vas deferens expressing delta opioid receptor; format: functional, tissue-based
[6] = target: T2, Mu-type opioid receptor; experiment: Inhibitory activity towards electrically induced contractions in guinea pig ileum expressing mu opioid receptor; format: tissue-based
[7] = target: T1, Mu-type opioid receptor; experiment: Binding affinity towards mu Opioid receptor in rat brain membrane using [3H]DAGO as radioligand; format: cell membranes

T2 sequence (P97266 whole entry): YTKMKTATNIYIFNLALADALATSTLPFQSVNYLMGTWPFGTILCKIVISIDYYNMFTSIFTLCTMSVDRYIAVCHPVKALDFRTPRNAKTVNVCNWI
Chain of Delta-type opioid receptor (Rattus norvegicus, UniProt P33533) (P33533 whole entry): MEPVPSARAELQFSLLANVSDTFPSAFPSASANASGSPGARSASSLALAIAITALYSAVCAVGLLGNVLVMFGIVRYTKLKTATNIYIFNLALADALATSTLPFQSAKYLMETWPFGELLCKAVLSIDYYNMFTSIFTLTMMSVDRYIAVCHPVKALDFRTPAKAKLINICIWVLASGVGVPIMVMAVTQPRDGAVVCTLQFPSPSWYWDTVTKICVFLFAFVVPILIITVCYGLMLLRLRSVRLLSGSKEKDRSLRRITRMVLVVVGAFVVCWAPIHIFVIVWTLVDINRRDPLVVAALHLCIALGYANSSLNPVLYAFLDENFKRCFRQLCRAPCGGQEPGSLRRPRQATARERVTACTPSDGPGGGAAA
Chain of Delta-type opioid receptor (Mus musculus, UniProt P32300) (P32300 whole entry): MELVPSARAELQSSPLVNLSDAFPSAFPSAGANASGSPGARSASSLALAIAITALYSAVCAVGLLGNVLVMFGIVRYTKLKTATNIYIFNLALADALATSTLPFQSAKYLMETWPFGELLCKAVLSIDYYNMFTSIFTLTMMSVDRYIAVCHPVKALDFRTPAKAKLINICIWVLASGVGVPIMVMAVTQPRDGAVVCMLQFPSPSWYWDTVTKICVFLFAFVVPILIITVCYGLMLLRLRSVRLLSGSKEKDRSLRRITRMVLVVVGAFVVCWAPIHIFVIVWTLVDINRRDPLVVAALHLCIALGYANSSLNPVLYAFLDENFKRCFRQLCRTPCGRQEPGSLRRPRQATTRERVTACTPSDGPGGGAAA
T1 sequence (P33535 whole entry): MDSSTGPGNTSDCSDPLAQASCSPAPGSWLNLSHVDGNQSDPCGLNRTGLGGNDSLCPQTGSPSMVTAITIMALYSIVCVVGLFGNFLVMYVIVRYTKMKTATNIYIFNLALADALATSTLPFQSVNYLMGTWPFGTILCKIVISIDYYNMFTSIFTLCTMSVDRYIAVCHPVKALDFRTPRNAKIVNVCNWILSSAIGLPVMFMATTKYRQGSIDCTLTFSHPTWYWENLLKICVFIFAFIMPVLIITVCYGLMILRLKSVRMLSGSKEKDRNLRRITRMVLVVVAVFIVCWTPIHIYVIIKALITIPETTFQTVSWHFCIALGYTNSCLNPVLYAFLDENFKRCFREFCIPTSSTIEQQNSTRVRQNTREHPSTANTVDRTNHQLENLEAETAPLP

| SMILES | Ki [1] [nM] | Ki [2] [nM] | IC50 [3] [nM] | IC50 [4] [nM] | IC50 [5] [nM] | IC50 [6] [nM] | Ki [7] [nM] |
| --- | --- | --- | --- | --- | --- | --- | --- |
| NC(=O)[C@@H]1CSSC[C@@H](NC(=O)[C@@H](N)Cc2ccc(O)cc2)C(=O)N[C@@H](Cc2ccccc2)C(=O)N1 | 373 | 11 | 64.7 |  |  |  |  |
| NC(=O)[C@@H]1CC(=O)NCCC[C@@H](NC(=O)[C@@H](N)Cc2ccc(O)cc2)C(=O)N[C@@H](Cc2ccc([N+](=O)[O-])cc2)C(=O)N1 | 5060 | 273 |  | 2340 | > 100000 |  |  |
| NC(=O)[C@H]1CC(=O)NCCC[C@@H](NC(=O)[C@@H](N)Cc2ccc(O)cc2)C(=O)N[C@@H](Cc2ccccc2)C(=O)N1 | 422 | 21.7 |  | 632 | 4810 |  |  |
| CN1C(=O)[C@H](NC(=O)[C@@H](N)Cc2ccc(O)cc2)CCCNC(=O)C[C@@H](C(N)=O)NC(=O)[C@@H]1Cc1ccccc1 | 28100 | 3570 |  | 6460 | 1380 |  |  |
| NC(=O)[C@@H]1CCNC(=O)C[C@@H](NC(=O)[C@@H](N)Cc2ccc(O)cc2)C(=O)N[C@@H](Cc2ccccc2)C(=O)N1 | 4170 | 24.8 |  | 279 | 2030 |  |  |
| NC(=O)[C@@H]1CC(=O)NCCC[C@@H](NC(=O)[C@@H](N)Cc2ccc(O)cc2)C(=O)N[C@@H](Cc2ccccc2)C(=O)N1 | 2220 | 10.4 |  |  | 3880 | 36.2 |  |
| NC(=O)[C@@H]1CC(=O)NCCC[C@@H](NC(=O)[C@@H](N)Cc2ccc(O)cc2)C(=O)N[C@H](Cc2ccccc2)C(=O)N1 | > 380000 | 3040 |  | > 21000 | > 8640 |  |  |
| NC(=O)[C@@H]1CC(=O)NCCC[C@H](NC(=O)[C@@H](N)Cc2ccc(O)cc2)C(=O)N[C@@H](Cc2ccccc2)C(=O)N1 | > 60000 |  |  | 16800 | > 100000 |  | 4830 |
| NC(=O)[C@@H]1CC(=O)NCCC[C@@H](NC(=O)[C@@H](N)Cc2ccc(O)cc2)C(=O)N[C@@H](CCc2ccccc2)C(=O)N1 | 849 | 11.9 |  | 111 | 1370 |  |  |
| NC(=O)[C@@H]1CC(=O)NCCC[C@@H](NC(=O)[C@@H](N)Cc2ccc(O)cc2)C(=O)N[C@@H](C2CCCCC2)C(=O)N1 | 3570 |  |  | 18400 | 1660 |  | 445 |
| NC(=O)[C@@H]1CCCNC(=O)C[C@@H](NC(=O)[C@@H](N)Cc2ccc(O)cc2)C(=O)N[C@@H](Cc2ccccc2)C(=O)N1 (H-Y[dD]F[Orn]-NH2; lactam 2-4) | 1320 | 9.55 |  | 522 | 8570 |  |  |
